Here are results for 4 molecules from article PMC11643720, “Addressing the Evolution of Cardenolide Formation in Iridoid-Synthesizing Plants: Site-Directed Mutagenesis of PRISEs (Progesterone-5β-Reductase/Iridoid Synthase-like Enzymes) of Plantago Species” (Molecules, 2024).

Like-named read-outs stand apart in the source and are kept apart here.

Experiment [1] concerns T1, rPlP5βR1 (PlP5βR1, PlP5βR).
T1 construct: gene P5βR1; full-length CDS 1170 bp, 389 aa; pDEST17, N-terminal 6xHis tag, E. coli SoluBL21 (mutants BL21(DE3)), Ni-NTA; printed WKF numbers of the two species may be swapped; wild type has L156 and L346 (abstract misprints A156, F346)
The experiment can be described thus: NADPH oxidation at […] nm, Michaelis-Menten. Conditions: 0.2 mM NADPH, phosphate buffer pH 8.0, 40 °C; SD < 25%. The class given is biochemical, Plantago lanceolata.

Experiment [2] has as its system T2, rPmdP5βR1 (PmdP5βR1, PmdP5βR).
T2 construct: gene P5βR1; full-length CDS 1170 bp, 389 aa; pDEST17, N-terminal 6xHis tag, E. coli SoluBL21 (mutants BL21(DE3)), Ni-NTA; printed WKF numbers of the two species may be swapped; wild type has F156 and A346
The experiment can be described thus: NADPH oxidation at […] nm, Michaelis-Menten. The class given is biochemical, Plantago media. The note with it: 0.2 mM NADPH, phosphate buffer pH 8.0, 40 °C, SD < 25%.

Experiment [3] relates to T1, rPlP5βR1 (PlP5βR1, PlP5βR). The experiment can be described thus: NADPH oxidation at […] nm, Michaelis-Menten. The note with it: 0.2 mM NADPH, phosphate buffer pH 8.0, 40 °C, SD < 25%, read-out: rPlP5βR1 / L156F. It is filed as biochemical, Plantago lanceolata.
Experiment [4] has as its system T2, rPmdP5βR1 (PmdP5βR1, PmdP5βR). The experiment can be described thus: NADPH oxidation at […] nm, Michaelis-Menten. It is filed as biochemical, Plantago media. Conditions: 0.2 mM NADPH, phosphate buffer pH 8.0, 40 °C, SD < 25%, read-out: rPmdP5βR1 / DMT.
The subject of experiment [5] is T1, rPlP5βR1 (PlP5βR1, PlP5βR). Put plainly: NADPH oxidation at […] nm, Michaelis-Menten. It is filed as biochemical, Plantago lanceolata. Conditions: 0.2 mM NADPH, phosphate buffer pH 8.0, 40 °C, SD < 25%, read-out: rPlP5βR1 / DMT.
Experiment [6] has as its system T3, rPmdP5βR1 (PmdP5βR1, PmdP5βR).
T3 construct: gene P5βR1
The note with it: read-out: rPmdP5βR1 / A346L; 0.2 mM NADPH, phosphate buffer pH 8.0, 40 °C, DMSO added at 0.4-0.6 mM progesterone; SD < 25%.

Experiment [7] has the same test system. The note with it: read-out: rPmdP5βR1 / F156L; 0.2 mM NADPH, phosphate buffer pH 8.0, 40 °C, DMSO added at 0.4-0.6 mM progesterone; SD < 25%.
For experiment [8], the system named is T4, rPlP5βR1 (PlP5βR1, PlP5βR).
T4 construct: gene P5βR1
Conditions: read-out: rPlP5βR1 / L346A; 0.2 mM NADPH, phosphate buffer pH 8.0, 40 °C, DMSO added at 0.4-0.6 mM progesterone; SD < 25%.

Where [9] appears, read: DMSO added at 0.4-0.6 mM progesterone.

In the case of `O=C1C=CCCC1` [2-cyclohexen-1-one], the Km was determined as 66 µM in experiment [1], 46 µM in experiment [2] and 16 µM in experiment [3].
Take `C/C(C=O)=C\CC/C(C)=C/C=O` [8-oxogeranial]: the Km in experiment [1] turned out to be 100 µM; in experiment [4], 7 µM; in experiment [2], 19 µM; in experiment [5], 10 µM.
For the molecule `C=CC(C)=O` [methyl vinyl ketone], the Km came to 100 µM in experiment [1], 33 µM in experiment [2] and 216 µM in experiment [5].
Turning to `CC(=O)[C@H]1CC[C@H]2[C@@H]3CCC4=CC(=O)CC[C@]4(C)[C@H]3CC[C@]12C` [progesterone], the Km in experiment [6] amounted to 218 µM; in experiment [4] (setting [9]), 587 µM; in experiment [7], 128 µM; in experiment [8], 170 µM; in experiment [2] (setting [9]), 67 µM; in experiment [3] (setting [9]), 451 µM. In addition, the Km in experiment [5] (setting [9]) was 44 µM.
